In US20120239131A1, “METHODS AND APPARATUS FOR TREATMENT OF ANEURYSMAL TISSUE” (Medtronic Vascular, Inc., priority 2011, published 2012):
“Also recorded” adds a separate entry of the source.

Legend:
aneurysm = test: Aneurysm incidence over time, ApoE−/−+Ang II AAA model; format: in vivo, ApoE−/− mice; conditions: aneurysm = dissection or more than 50% increase in diameter; versus doxycycline and saline control
Method: (§1) ApoE−/− mice used in this study were divided into different pretreatment groups: 1) Fluvastatin-MF; 2) Doxycycline-MD; 3) Irbesartan-MI; 4) Telmisartan-MT; 5) Control (water) and fed medicated chow or medicated drinking water 1 week prior to pump implantation. AngII (1000 ng·kg^−1 of body weight·min^−1) was infused subcutaneously via Alzet mini-osmotic pumps for 28 days. All mice were maintained on the medicated chow (MI & MT) or medicated drinking water (MF & MD) treatments which were delivered daily for a total of 28 days following pump implantation.
(§2) In order to determine the effect of the various treatments on the progressive enlargement of the experimental AAAs the mice were followed with high frequency trans-abdominal ultrasound. Maximum aortic diameter was measured and recorded prior to pump implantation and then at 3, 7, 14, 21, and 28 days. All mice were sacrificed 28 days after pump implantation. Aortae were harvested and subjected to either histological analysis (Elastic Masson trichome, MAC2, CD31 and TUNEL staining) and analysis of mural gene expression. Plasma drug concentrations of experimental compounds were quantified on the day of sacrifice using high performance liquid chromatography (HPLC).
Aneurysm was defined as either the presence of dissection or more than 50% increase in diameter.

[1] = tested on: genes involved in the pathophysiology of AAA; test: Drug inhibition effect on differentially expressed genes, overall; format: in vivo, ApoE−/− mice
Method: as §1, §2
(§3) Total RNA was extracted from homogenized aortas using the Qiazol lysis reagent and RNeasy Lipid Tissue Mini kit. DNAse treatment was included in the procedure. RNA concentration was determined utilizing the Quant iT RNA assay kit. Complimentary deoxyribonucleic acid (cDNA) was synthesized from 1 μg RNA using High reverse cDNA transcription kit. Briefly the reaction tubes containing RNA, reverse transcriptase, buffer, RNAse inhibitor, and nuclease free water were incubated at 25° C. for 10 minutes to allow annealing. Reverse transcription was performed at 37° C. for 120 min, followed by a 5 sec incubation at 85° C. to inactivate the reverse transcriptase enzyme. The cDNA samples were cooled at 4° C. and stored at −80° C. until further use.
(§4) Real time PCR was performed using a 384-well Taqman low density array (TLDA) card. Each sample specific PCR mix contained 50 ng of total RNA converted to cDNA. The PCR reaction for Taqman assays contained 50 μl Master Mix (Taqman Universal PCR Master Mix,) and 50 ul of cDNA and RNAase free water. Assays were performed to include appropriate controls (no template control). The RT-PCR protocol included an initial step of 50° C. (2 minutes) […], denaturation by a hot start at 95° C. for 10 min, followed by 40 cycles of a 2 step program (denaturation at 95° C. for 15 secs for primer annealing/extension at 60° C. for 1 min). Fluorescence data was collected at 60° C. Fluorescence was quantified with ABI PRISM 7900HT Sequence Detection System. To verify amplification of a specific target cDNA, data generated was analyzed using SDS 2.2.3 software (Sequence Detection System Software, Applied Biosystems). For all amplification plots, the baseline data were set with the automatic CT function available with SDS 2.2.3 calculating the optimal baseline range and threshold value by using the AutoCT algorithm. According to the manufacturer's instruction, a CT value of ≧39 corresponds to nonspecific amplification marking the limits of detection. For endogenous control GAPDH was normalized to B2M. For relative quantification (RQ), pooled ApoE−/− control was used as the calibrator (with expression equal to 1).

MAPK8 = test: Aortic mural gene expression, RT-PCR (TLDA); format: in vivo, ApoE−/− mice; conditions: fold change over ApoE−/− control; aorta, 28 days Ang II infusion
Method: as §1, §2, §3, §4

Osteopontin = test: Aortic mural gene expression, RT-PCR (TLDA); format: in vivo, ApoE−/− mice; conditions: fold change over ApoE−/− control; aorta, 28 days Ang II infusion
Method: as §1, §2, §3, §4

Tgfβ1 = test: Aortic mural gene expression, RT-PCR (TLDA); format: in vivo, ApoE−/− mice; conditions: fold change over ApoE−/− control; aorta, 28 days Ang II infusion
Method: as §1, §2, §3, §4

ITGB2 = test: Aortic mural gene expression, RT-PCR (TLDA); format: in vivo, ApoE−/− mice; conditions: fold change over ApoE−/− control; aorta, 28 days Ang II infusion
Method: as §1, §2, §3, §4

Cathepsin B = test: Aortic mural gene expression, RT-PCR (TLDA); format: in vivo, ApoE−/− mice; conditions: fold change over ApoE−/− control; aorta, 28 days Ang II infusion
Method: as §1, §2, §3, §4

Rac2 = test: Aortic mural gene expression, RT-PCR (TLDA); format: in vivo, ApoE−/− mice; conditions: fold change over ApoE−/− control; aorta, 28 days Ang II infusion
Method: as §1, §2, §3, §4

TIMP2 = test: Aortic mural gene expression, RT-PCR (TLDA); format: in vivo, ApoE−/− mice; conditions: fold change over ApoE−/− control; aorta, 28 days Ang II infusion
Method: as §1, §2, §3, §4

MMP-12 = test: Aortic mural gene expression, RT-PCR (TLDA); format: in vivo, ApoE−/− mice; conditions: fold change over ApoE−/− control; aorta, 28 days Ang II infusion
Method: as §1, §2, §3, §4

Fibronectin -1 = test: Aortic mural gene expression, RT-PCR (TLDA); format: in vivo, ApoE−/− mice; conditions: fold change over ApoE−/− control; aorta, 28 days Ang II infusion
Method: as §1, §2, §3, §4

Vav1 = test: Aortic mural gene expression, RT-PCR (TLDA); format: in vivo, ApoE−/− mice; conditions: fold change over ApoE−/− control; aorta, 28 days Ang II infusion
Method: as §1, §2, §3, §4

TNF-α = test: Aortic mural gene expression, RT-PCR (TLDA); format: in vivo, ApoE−/− mice; conditions: fold change over ApoE−/− control; aorta, 28 days Ang II infusion
Method: as §1, §2, §3, §4

MMP-8 = test: Aortic mural gene expression, RT-PCR (TLDA); format: in vivo, ApoE−/− mice; conditions: fold change over ApoE−/− control; aorta, 28 days Ang II infusion
Method: as §1, §2, §3, §4

Cathepsin S = test: Aortic mural gene expression, RT-PCR (TLDA); format: in vivo, ApoE−/− mice; conditions: fold change over ApoE−/− control; aorta, 28 days Ang II infusion
Method: as §1, §2, §3, §4

Cybb = test: Aortic mural gene expression, RT-PCR (TLDA); format: in vivo, ApoE−/− mice; conditions: fold change over ApoE−/− control; aorta, 28 days Ang II infusion
Method: as §1, §2, §3, §4

ITGAL = test: Aortic mural gene expression, RT-PCR (TLDA); format: in vivo, ApoE−/− mice; conditions: fold change over ApoE−/− control; aorta, 28 days Ang II infusion
Method: as §1, §2, §3, §4

LOX = test: Aortic mural gene expression, RT-PCR (TLDA); format: in vivo, ApoE−/− mice; conditions: fold change over ApoE−/− control; aorta, 28 days Ang II infusion
Method: as §1, §2, §3, §4

CXCR4 = test: Aortic mural gene expression, RT-PCR (TLDA); format: in vivo, ApoE−/− mice; conditions: fold change over ApoE−/− control; aorta, 28 days Ang II infusion
Method: as §1, §2, §3, §4

CCL2 = test: Aortic mural gene expression, RT-PCR (TLDA); format: in vivo, ApoE−/− mice; conditions: fold change over ApoE−/− control; aorta, 28 days Ang II infusion
Method: as §1, §2, §3, §4

HMOX 1 = test: Aortic mural gene expression, RT-PCR (TLDA); format: in vivo, ApoE−/− mice; conditions: fold change over ApoE−/− control; aorta, 28 days Ang II infusion
Method: as §1, §2, §3, §4

IL-7 = test: Aortic mural gene expression, RT-PCR (TLDA); format: in vivo, ApoE−/− mice; conditions: fold change over ApoE−/− control; aorta, 28 days Ang II infusion
Method: as §1, §2, §3, §4

Runx3 = test: Aortic mural gene expression, RT-PCR (TLDA); format: in vivo, ApoE−/− mice; conditions: fold change over ApoE−/− control; aorta, 28 days Ang II infusion
Method: as §1, §2, §3, §4

CCR5 = test: Aortic mural gene expression, RT-PCR (TLDA); format: in vivo, ApoE−/− mice; conditions: fold change over ApoE−/− control; aorta, 28 days Ang II infusion
Method: as §1, §2, §3, §4

CCR2 = test: Aortic mural gene expression, RT-PCR (TLDA); format: in vivo, ApoE−/− mice; conditions: fold change over ApoE−/− control; aorta, 28 days Ang II infusion
Method: as §1, §2, §3, §4

[2] = Plasma drug content by HPLC; format: in vivo, ApoE−/− mice; conditions: mouse plasma on day of sacrifice
Method: as §2

AAA = test: Aortic diameter by ultrasonography, ApoE−/−+Ang II AAA model; format: in vivo, ApoE−/− mice; conditions: pretreatment 1 week before Ang II infusion, followed to 28 days; versus control and doxycycline
Source text: The ApoE^−/−+Ang II AAA model is well established and supported by current scientific literature. Mice genetically predisposed to hypercholesterolemia develop aneurysms when treated with angiotensin II. Aneurysms generally develop within the first week after pump implantation and share many important pathologic characteristics with human AAA disease. ApoE−/− mice used in this study were divided into different pretreatment groups: 1) Fluvastatin-MF; 2) Doxycycline-MD; 3) Irbesartan-MI; 4) Telmisartan-MT; 5) Control (water) and fed medicated chow or medicated drinking water 1 week prior to pump implantation. AngII (1000 ng·kg^−1 of body weight·min^−1) was infused subcutaneously via Alzet mini-osmotic pumps for 28 days. All mice were maintained on the medicated chow (MI & MT) or medicated drinking water (MF & MD) treatments which were delivered daily for a total of 28 days following pump implantation. In order to determine the effect of the various treatments on the progressive enlargement of the experimental AAAs the mice were followed with high frequency trans-abdominal ultrasound. Maximum aortic diameter was measured and recorded prior to pump implantation and then at 3, 7, 14, 21, and 28 days. All mice were sacrificed 28 days after pump implantation. Aortae were harvested and subjected to either histological analysis (Elastic Masson trichome, MAC2, CD31 and TUNEL staining) and analysis of mural gene expression. Plasma drug concentrations of experimental compounds were quantified on the day of sacrifice using high performance liquid chromatography (HPLC).

[3] = cited from earlier work

Question: Which “Inhibition of aneurysm development (aneurysm incidence)” value (aneurysm) does the source give for `CCCCC1=NC2(CCCC2)C(=O)N1Cc1ccc(-c2ccccc2-c2nnn[nH]2)cc1` [Irbesartan] here?
Answer: effective in inhibiting aneurysm development; also recorded: inhibited aneurysm development well

Question: What about the “Down-regulation of genes involved in the pathophysiology of AAA” value ([1]; ApoE−/− + Ang II AAA model, summary of Table 2) of the same molecule?
Answer: down-regulating the expression of genes

Question: And the “Total Score” value ([1]; sum of heat map grades over 25 genes, ApoE−/− + Ang II group scored 55)?
Answer: 7

Question: And the MAPK8 expression (MAPK8)?
Answer: − (0 to 1 = −)

Question: And the Osteopontin expression (Osteopontin)?
Answer: ++ (1.51 to 3 = ++)

Question: And the Tgfβ1 expression (Tgfβ1)?
Answer: − (0 to 1 = −)

Question: And the ITGB2 expression (ITGB2)?
Answer: − (0 to 1 = −)

Question: And the “Cathepsin B expression” value (Cathepsin B)?
Answer: − (0 to 1 = −)

Question: What about the Rac2 expression (Rac2) of the same molecule?
Answer: − (0 to 1 = −)

Question: What about the TIMP2 expression (TIMP2) of the same molecule?
Answer: − (0 to 1 = −)

Question: And the MMP-12 expression (MMP-12)?
Answer: +++ (3.1 to 10 = +++)

Question: And the “Fibronectin -1 expression” value (Fibronectin -1)?
Answer: − (0 to 1 = −)

Question: And the Vav1 expression (Vav1)?
Answer: − (0 to 1 = −)

Question: What about the TNF-α expression (TNF-α) of the same molecule?
Answer: − (0 to 1 = −)

Question: And the MMP-8 expression (MMP-8)?
Answer: ++ (1.51 to 3 = ++)

Question: And the “Cathepsin S expression” value (Cathepsin S)?
Answer: − (0 to 1 = −)

Question: And the Cybb expression (Cybb)?
Answer: − (0 to 1 = −)

Question: And the ITGAL expression (ITGAL)?
Answer: − (0 to 1 = −)

Question: And the LOX expression (LOX)?
Answer: − (0 to 1 = −)

Question: What about the CXCR4 expression (CXCR4) of the same molecule?
Answer: − (0 to 1 = −)

Question: And the CCL2 expression (CCL2)?
Answer: − (0 to 1 = −)

Question: What about the “HMOX 1 expression” value (HMOX 1) of the same molecule?
Answer: − (0 to 1 = −)

Question: What about the IL-7 expression (IL-7) of the same molecule?
Answer: − (0 to 1 = −)

Question: And the Runx3 expression (Runx3)?
Answer: − (0 to 1 = −)

Question: And the CCR5 expression (CCR5)?
Answer: − (0 to 1 = −)

Question: What about the CCR2 expression (CCR2) of the same molecule?
Answer: − (0 to 1 = −)

Question: What about the Plasma drug content [2] of the same molecule?
Answer: lower plasma concentration

Question: And the “Inhibition of aneurysm development/growth (aortic diameter)” value (AAA)?
Answer: effective in inhibiting/preventing aneurysm development

Question: For `C[C@H](CS)C(=O)N1CCC[C@H]1C(=O)O` [Captopril, captopril], which Bioavailability ([3]; given orally) is on record?
Answer: about 75%

Question: With `CCOC(=O)[C@H](CCc1ccccc1)N[C@@H](C)C(=O)N1CC2(C[C@H]1C(=O)O)SCCS2` [spirapril] as the molecule, how does the Route of clearance/elimination ([3]; in vivo) read?
Answer: balanced elimination by the liver and kidneys
